Source: US20230022157A1 (Achillion Pharmaceuticals, Inc., priority 2018, published 2023)

Each molecule was assayed against T1, Human Factor D (Homo sapiens, UniProt P00746) (assay: Human Factor D Assay). Conditions: Human Factor D 80 nM, substrate Z-L-Lys-SBzl, assay of Example 3; read-out: IC50 (Stars).
T1 construct: purified from human serum; purchased Complement Technology, Inc; host or cells: human serum (natural protein, not recombinant)
Format: biochemical
Outline: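 Serum-purified human factor D (80 nM final) preincubated 5 min at room temperature with test compound in 50 mM Tris, 1M NaCl, pH 7.5. Z-L-Lys-SBzl substrate and DTNB then added, each at 100 μM final. IC50 from nonlinear regression of reaction rate against compound concentration.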

T1 sequence (P00746 26-253): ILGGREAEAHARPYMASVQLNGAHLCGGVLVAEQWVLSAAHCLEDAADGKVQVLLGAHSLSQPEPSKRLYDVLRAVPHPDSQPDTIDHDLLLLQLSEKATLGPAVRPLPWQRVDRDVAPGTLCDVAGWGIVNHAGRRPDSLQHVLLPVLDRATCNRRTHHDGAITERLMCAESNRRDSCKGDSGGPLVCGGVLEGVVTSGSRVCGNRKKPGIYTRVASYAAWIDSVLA

| IC50 [µM] | Compound |
| --- | --- |
| < 1 | CC(=O)c1nn(CC(=O)N2C[C@H](F)C[C@H]2C(=O)Nc2cccc(Br)n2)c2ccc(-c3ccc(C)nn3)cc12 [Compound 35, (2S,4R)-1-(2-(3-Acetyl-5-(6-methylpyridazin-3-yl)-1H-indazol-1-yl)acetyl)-N-(6-bromopyridin-2-yl)-4-fluoropyrrolidine-2-carboxamide] |
| < 1 | CC(=O)c1nn(CC(=O)N2[C@H](C(=O)N[C@H](C)C(C)C)C[C@@]3(C)C[C@@H]23)c2ccc(-c3cnc(C)nc3)cc12 [Compound 14, (1R,3S,5R)-2-(2-(3-Acetyl-5-(2-methylpyrimidin-5-yl)-1H-indazol-1-yl)acetyl)-5-methyl-N—((R)-3-methylbutan-2-yl)-2-azabicyclo[3.1.0]hexane-3-carboxamide] |
| < 1 | CCC[C@@H](C)NC(=O)[C@@H]1C[C@@]2(C)C[C@H]2N1C(=O)Cn1nc(C(C)=O)c2cc(-c3cnc(C)nc3)ccc21 [Compound 16, (1R,3S,5R)-2-(2-(3-Acetyl-5-(2-methylpyrimidin-5-yl)-1H-indazol-1-yl)acetyl)-5-methyl-N—((R)-pentan-2-yl)-2-azabicyclo[3.1.0]hexane-3-carboxamide] |

Same assay, conditions: Human Factor D 80 nM, substrate Z-L-Lys-SBzl; Table 2; read-out: IC50 (Stars)

| Compound | IC50 [µM] |
| --- | --- |
| CC(=O)c1cn(CC(=O)N2[C@H](C(=O)Nc3nc(Br)ccc3C)C[C@@]3(C)C[C@@H]23)c2c(C)cc(-c3cnc(C(C)O)nc3)cc12 (stereo partly drawn) [Compound 157, (1R,3S,5R)-2-(2-(3-acetyl-5-(2-(1-hydroxyethyl)pyrimidin-5-yl)-7-methyl-1H-indol-1-yl)acetyl)-N-(6-bromo-3-methylpyridin-2-yl)-5-methyl-2-azabicyclo[3.1.0]hexane-3-carboxamide] | < 1 |
| C#CCC(Cc1ccccc1)NC(=O)[C@@H]1C[C@@]2(C)C[C@H]2N1C(=O)Cn1nc(C(C)=O)c2cc(-c3cnc(C)nc3)cc(C)c21 (stereo partly drawn) [Compound 175, (1R,3S,5R)-2-{2-[3-acetyl-7-methyl-5-(2-methylpyrimidin-5-yl)indazol-1-yl]acetyl}-5-methyl-N-(1-phenylpent-4-yn-2-yl)-2-azabicyclo[3.1.0]hexane-3-carboxamide] | < 1 |
| Cc1ncc(-c2cc3c(C(N)=O)nn(CC(=O)N4[C@H](C(=O)Nc5cc(F)cc(Br)n5)C[C@@]5(C)C[C@@H]45)c3c(C)n2)cn1 [Compound 140, 1-(2-((1R,3S,5R)-3-((6-bromo-4-fluoropyridin-2-yl)carbamoyl)-5-methyl-2-azabicyclo[3.1.0]hexan-2-yl)-2-oxoethyl)-7-methyl-5-(2-methylpyrimidin-5-yl)-1H-pyrazolo[3,4-c]pyridine-3-carboxamide] | < 1 |
| CC(=O)c1cn(CC(=O)N2[C@H](C(=O)Nc3nc(C(F)(F)F)ccc3C)C[C@@]3(C)C[C@@H]23)c2ccc(-c3cnc4cc(C)nn4c3)cc12 [Compound 203, (1R,3S,5R)-2-(2-(3-acetyl-5-(2-methylpyrazolo[1,5-a]pyrimidin-6-yl)-1H-indol-1-yl)acetyl)-5-methyl-N-(3-methyl-6-(trifluoromethyl)pyridin-2-yl)-2-azabicyclo[3.1.0]hexane-3-carboxamide] | < 1 |
| CC(=O)c1nn(CC(=O)N2[C@H](C(=O)NCCn3cccn3)C[C@@]3(C)C[C@@H]23)c2c(C)cc(-c3cnc(C)nc3)cc12 [Compound 102, (1R,3S,5R)-2-{2-[3-acetyl-7-methyl-5-(2-methylpyrimidin-5-yl)indazol-1-yl]acetyl}-5-methyl-N-[2-(pyrazol-1-yl)ethyl]-2-azabicyclo[3.1.0]hexane-3-carboxamide] | < 1 |
| CC(=O)c1cn(CC(=O)N2[C@H](C(=O)Nc3nc(C(F)(F)F)ccc3C)C[C@@]3(CF)C[C@@H]23)c2c(C)cc(-c3cnc(C)nc3)cc12 [Compound 234, (1R,3S,5S)-2-(2-(3-acetyl-7-methyl-5-(2-methylpyrimidin-5-yl)-1H-indol-1-yl)acetyl)-5-(fluoromethyl)-N-(3-methyl-6-(trifluoromethyl)pyridin-2-yl)-2-azabicyclo[3.1.0]hexane-3-carboxamide] | < 1 |
| CC(=O)c1nn(CC(=O)N2C[C@H]3C[C@H]3[C@H]2C(=O)Nc2nc(Br)c(F)cc2C)c2c(C)cc(-c3cnc(CO)nc3)cc12 [Compound 76, (1R,2S,5S)-3-(2-(3-acetyl-5-(2-(hydroxymethyl)pyrimidin-5-yl)-7-methyl-11H-indazol-1-yl)acetyl)-N-(6-bromo-5-fluoro-3-methylpyridin-2-yl)-3-azabicyclo[3.1.0]hexane-2-carboxamide] | < 1 |
| CC(=O)c1nn(CC(=O)N2[C@H](C(=O)Nc3cc(F)cc(Br)n3)C[C@@]3(C)C[C@@H]23)c2c(C)cc(-c3cnc(CO)nc3)cc12 [Compound 123, (1R,3S,5R)-2-(2-(3-acetyl-5-(2-(hydroxymethyl)pyrimidin-5-yl)-7-methyl-1H-indazol-1-yl)acetyl)-N-(6-bromo-4-fluoropyridin-2-yl)-5-methyl-2-azabicyclo[3.1.0]hexane-3-carboxamide] | < 1 |
| CC(=O)c1nn(CC(=O)N2[C@H](C(=O)Nc3nc(Br)ccc3C3CC3)C[C@@]3(C)C[C@@H]23)c2ccc(-c3cnc(CO)nc3)cc12 [Compound 81, (1R,3S,5R)-2-(2-(3-acetyl-5-(2-(hydroxymethyl)pyrimidin-5-yl)-1H-indazol-1-yl)acetyl)-N-(6-bromo-3-cyclopropylpyridin-2-yl)-5-methyl-2-azabicyclo[3.1.0]hexane-3-carboxamide] | < 1 |
| CC(=O)c1nn(CC(=O)N2[C@H](C(=O)NC(C)Cc3ccoc3)C[C@@]3(C)C[C@@H]23)c2c(C)cc(-c3cnc(C)nc3)cc12 (stereo partly drawn) [Compound 181, (1R,3S,5R)-2-{2-[3-acetyl-7-methyl-5-(2-methylpyrimidin-5-yl)indazol-1-yl]acetyl}-N-[1-(furan-3-yl)propan-2-yl]-5-methyl-2-azabicyclo[3.1.0]hexane-3-carboxamide] | < 1 |
| COCc1ccc(Br)nc1NC(=O)[C@@H]1C[C@@]2(C)C[C@H]2N1C(=O)Cn1cc(C(C)=O)c2cc(-c3cnc4cc(C)nn4c3)cc(C)c21 [Compound 215, (1R,3S,5R)-2-(2-(3-acetyl-7-methyl-5-(2-methylpyrazolo[1,5-a]pyrimidin-6-yl)-1H-indol-1-yl)acetyl)-N-(6-bromo-3-(methoxymethyl)pyridin-2-yl)-5-methyl-2-azabicyclo[3.1.0]hexane-3-carboxamide] | < 1 |
| CC(=O)c1nn(CC(=O)N2[C@H](C(=O)Nc3nc(Br)ccc3Cl)C[C@@]3(C)C[C@@H]23)c2c(C)cc(-c3cnc(CO)nc3)cc12 [Compound 80, (1R,3S,5R)-2-(2-(3-acetyl-5-(2-(hydroxymethyl)pyrimidin-5-yl)-7-methyl-1H-indazol-1-yl)acetyl)-N-(6-bromo-3-chloropyridin-2-yl)-5-methyl-2-azabicyclo[3.1.0]hexane-3-carboxamide] | < 1 |

The next lines start with the values.

| IC50 [µM] | Compound |
| --- | --- |
| < 1 | CC(=O)c1nn(CC(=O)N2C[C@H]3C[C@H]3[C@H]2C(=O)Nc2nc(Br)ccc2C)c2ccc(-c3cnc(CO)nc3)cc12 [Compound 63, (1R,2S,5S)-3-(2-(3-acetyl-5-(2-(hydroxymethyl)pyrimidin-5-yl)-1H-indazol-1-yl)acetyl)-N-(6-bromo-3-methylpyridin-2-yl)-3-azabicyclo[3.1.0]hexane-2-carboxamide] |
| < 1 | CC(=O)c1nn(CC(=O)N2[C@H](C(=O)N[C@H](C)C(F)(F)F)C[C@@]3(C)C[C@@H]23)c2c(C)cc(-c3cnc(C)nc3)cc12 [Compound 152, (1R,3S,5R)-2-{2-[3-acetyl-7-methyl-5-(2-methylpyrimidin-5-yl)indazol-1-yl]acetyl}-5-methyl-N-[(2R)-1,1,1-trifluoropropan-2-yl]-2-azabicyclo[3.1.0]hexane-3-carboxamide] |
| < 1 | CC(=O)c1nn(CC(=O)N2C[C@H]3C[C@H]3[C@H]2C(=O)Nc2nc(Br)ccc2C)c2ccc(-c3cncc(S(N)(=O)=O)c3)cc12 [Compound 69, (1R,2S,5S)-3-(2-(3-Acetyl-5-(5-sulfamoylpyridin-3-yl)-1H-indazol-1-yl)acetyl)-N-(6-bromo-3-methylpyridin-2-yl)-3-azabicyclo[3.1.0]hexane-2-carboxamide] |
| < 1 | CC(=O)c1nn(CC(=O)N2[C@H](C(=O)N[C@@H](C)C3CCCCC3)C[C@@]3(C)C[C@@H]23)c2c(C)cc(-c3cnc(C)nc3)cc12 [Compound 72, (1R,3S,5R)-2-(2-(3-Acetyl-7-methyl-5-(2-methylpyrimidin-5-yl)-1H-indazol-1-yl)acetyl)-N—((S)-1-cyclohexylethyl)-5-methyl-2-azabicyclo[3.1.0]hexane-3-carboxamide] |
| < 1 | CC(=O)c1nn(CC(=O)N2[C@H](C(=O)N[C@@H]3CCCCC3(F)F)C[C@@]3(C)C[C@@H]23)c2c(C)cc(-c3cnc(C)nc3)cc12 [Compound 148, (1R,3S,5R)-2-{2-[3-acetyl-7-methyl-5-(2-methylpyrimidin-5-yl)indazol-1-yl]acetyl}-N-[(1R)-2,2-difluorocyclohexyl]-5-methyl-2-azabicyclo[3.1.0]hexane-3-carboxamide] |
| < 1 | CC(=O)c1nn(CC(=O)N2[C@H]3CC[C@H](C3)[C@H]2C(=O)Nc2nc(Br)ccc2C)c2c(C)cc(-c3cnc(CO)nc3)cc12 [Compound 100, (1S,3S,4R)-2-(2-(3-acetyl-5-(2-(hydroxymethyl)pyrimidin-5-yl)-7-methyl-1H-indazol-1-yl)acetyl)-N-(6-bromo-3-methylpyridin-2-yl)-2-azabicyclo[2.2.1]heptane-3-carboxamide] |
| < 1 | CC(=O)c1cn(CC(=O)N2[C@H](C(=O)Nc3cc(C)cc(Br)n3)C[C@@]3(C)C[C@@H]23)c2c(C)cc(-c3cnc(C)nc3)cc12 [Compound 193, (1R,3S,5R)-2-(2-(3-acetyl-7-methyl-5-(2-methylpyrimidin-5-yl)-1H-indol-1-yl)acetyl)-N-(6-bromo-4-methylpyridin-2-yl)-5-methyl-2-azabicyclo[3.1.0]hexane-3-carboxamide] |
